Experimental data taken from ChEMBL document CHEMBL4837263, “N-Aromatic-Substituted Indazole Derivatives as Brain-Penetrant and Orally Bioavailable JNK3 Inhibitors” (ACS Med Chem Lett, 2021).
Blank lines part the entries; values can stand above or below the compound they belong to. Active and inactive are the calls of the source. No cut-off for these calls is given here.

Key:
CYP3A4 = CYP3A4 (Homo sapiens, UniProt P08684); assay: Inhibition of CYP3A4 (unknown origin) assessed as midazolam hydroxylation to 1'-hydroxy midazolam at 10 uM by cocktail inhibition assay relative to control; conditions: probe midazolam (hydroxylation to 1'-hydroxy midazolam)
SH-SY5Y = assay: Cytotoxicity against human SH-SY5Y cells assessed as reduction in cell viability at 10 uM measured after 48 hrs by MTT assay; format: cell-based
[1] = Selectivity index, ratio of IC50 for JNK1 (unknown origin) to IC50 for JNK3 (unknown origin)
[2] = target: T1, Mitogen-activated protein kinase 14 (Homo sapiens, UniProt Q16539); assay: Inhibition of p38 alpha (unknown origin) using biotinylated FL-ATF-2 as substrate measured after 22 mins by homogeneous time-resolved fluorescence analysis
[3] = target: T2, Mitogen-activated protein kinase 10 (Homo sapiens, UniProt P53779); assay: Inhibition of JNK3alpha1 (unknown origin) using biotinylated FL-ATF-2 as substrate measured after 22 mins by homogeneous time-resolved fluorescence analysis
[4] = target: T3, Mitogen-activated protein kinase 9 (Homo sapiens, UniProt P45984); assay: Inhibition of JNK2 (unknown origin) using biotinylated FL-ATF-2 as substrate measured after 22 mins by homogeneous time-resolved fluorescence analysis
Target sequence in this assay (P45984 whole entry): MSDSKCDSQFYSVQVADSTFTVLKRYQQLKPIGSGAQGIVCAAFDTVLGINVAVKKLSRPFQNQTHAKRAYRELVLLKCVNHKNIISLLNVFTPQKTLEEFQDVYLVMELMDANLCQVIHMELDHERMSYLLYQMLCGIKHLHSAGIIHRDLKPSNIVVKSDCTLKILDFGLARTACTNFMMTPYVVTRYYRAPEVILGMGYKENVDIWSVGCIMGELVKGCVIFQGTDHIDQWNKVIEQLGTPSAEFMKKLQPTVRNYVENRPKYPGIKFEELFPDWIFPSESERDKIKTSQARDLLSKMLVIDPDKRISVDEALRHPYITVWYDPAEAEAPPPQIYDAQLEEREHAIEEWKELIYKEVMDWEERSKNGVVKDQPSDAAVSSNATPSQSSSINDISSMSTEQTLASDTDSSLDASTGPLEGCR

[5] = Stability in mouse liver microsome assessed as half life; format: ADME; conditions: liver microsomes
[6] = Stability in human liver microsome assessed as half life; format: ADME; conditions: liver microsomes
[7] = Selectivity index, ratio of IC50 for JNK2 (unknown origin) to IC50 for JNK3 (unknown origin)
CYP1A2 = target: T4, CYP1A2 (Homo sapiens, UniProt P05177); assay: Inhibition of CYP1A2 (unknown origin) assessed as phenaceten demethylation to acetaminophen at 10 uM by cocktail inhibition assay relative to control; conditions: probe phenacetin (demethylation to acetaminophen)
T4 sequence (P05177 whole entry): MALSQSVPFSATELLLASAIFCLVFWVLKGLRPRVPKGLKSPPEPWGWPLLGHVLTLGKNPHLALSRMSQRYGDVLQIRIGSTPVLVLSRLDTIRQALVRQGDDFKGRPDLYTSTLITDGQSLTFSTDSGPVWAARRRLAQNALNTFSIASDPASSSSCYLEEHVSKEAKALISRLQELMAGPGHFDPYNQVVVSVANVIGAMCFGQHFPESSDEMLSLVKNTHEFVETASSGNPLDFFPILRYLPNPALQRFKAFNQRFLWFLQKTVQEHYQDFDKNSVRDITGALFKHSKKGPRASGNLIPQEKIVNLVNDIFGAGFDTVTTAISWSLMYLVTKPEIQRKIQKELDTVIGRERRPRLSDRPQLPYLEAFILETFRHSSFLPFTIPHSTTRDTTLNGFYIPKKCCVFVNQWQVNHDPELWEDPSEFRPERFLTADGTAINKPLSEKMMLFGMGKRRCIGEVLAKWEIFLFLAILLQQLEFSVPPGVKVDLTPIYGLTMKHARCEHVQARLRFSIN

[8] = target: T5, Mitogen-activated protein kinase 8 (Homo sapiens, UniProt P45983); assay: Inhibition of JNK1 (unknown origin) using biotinylated FL-ATF-2 as substrate measured after 22 mins by homogeneous time-resolved fluorescence analysis
CYP2D6 = CYP2D6 (Homo sapiens, UniProt P10635); assay: Inhibition of CYP2D6 (unknown origin) assessed as bufuralol hydroxylation to 4'-hydroxy bufuralol at 10 uM by cocktail inhibition assay relative to control; conditions: probe bufuralol (hydroxylation to 4'-hydroxy bufuralol)
[9] = target: Voltage-gated inwardly rectifying potassium channel KCNH2 (Homo sapiens, UniProt Q12809); assay: Inhibition of human ERG expressed in CHO cells at -80 mV holding potential by automated Qpatch electrophysiological method
Cytochrome P450 2C9 = Cytochrome P450 2C9 (Homo sapiens, UniProt P11712); assay: Inhibition of CYP2C9 (unknown origin) by titration method
CYP2C9 = CYP2C9 (Homo sapiens, UniProt P11712); assay: Inhibition of CYP2C9 (unknown origin) assessed as tolbutamide hydroxylation to hydrocytolbutamide at 10 uM by cocktail inhibition assay relative to control; conditions: probe tolbutamide (hydroxylation to hydroxytolbutamide)
[10] = Selectivity index, ratio of IC50 for p38 alpha (unknown origin) to IC50 for JNK3 (unknown origin)
[11] = target: T5, Mitogen-activated protein kinase 8; assay: Inhibition of human JNK1 using ATF2 as substrate by [gamma-33P]-ATP assay; conditions: dose 1.0 µM
[12] = target: T6, Casein kinase I isoform epsilon (Homo sapiens, UniProt P49674); assay: Inhibition of human CK1E using KRRRAL[pS]VASLPGL as substrate by [gamma-33P]-ATP assay
[13] = target: T7, Epithelial discoidin domain-containing receptor 1 (Homo sapiens, UniProt Q08345); assay: Inhibition of human DDR1 at 1 uM using KKSRGDYMTMQIG as substrate by [gamma-33P]-ATP assay relative to control
[14] = target: T7, Epithelial discoidin domain-containing receptor 1; assay: Inhibition of human DDR1 using KKSRGDYMTMQIG as substrate by [gamma-33P]-ATP assay
[15] = target: Protein-tyrosine kinase 6 (Homo sapiens) (UniProt Q13882); assay: Inhibition of human BRK at 1 uM using poly[Glu:Tyr](4:1) as substrate by [gamma-33P]-ATP assay relative to control
[16] = target: T6, Casein kinase I isoform epsilon; assay: Inhibition of human CK1E at 1 uM using KRRRAL[pS]VASLPGL as substrate by [gamma-33P]-ATP assay relative to control
[17] = target: T1, Mitogen-activated protein kinase 14; assay: Inhibition of human p38alpha at 1 uM using MBP as substrate by [gamma-33P]-ATP assay relative to control
[18] = Drug concentration in C57BL/6J mouse plasma at 30 mg/kg, po measured after 2 hrs by LC-MS/MS analysis; format: ADME, organism-based
[19] = Drug concentration in C57BL/6J mouse brain at 30 mg/kg, po measured after 2 hrs by LC-MS/MS analysis; format: ADME, organism-based; conditions: read-out: Ct
[20] = target: T2, Mitogen-activated protein kinase 10; assay: Inhibition of human JNK3 at 1 uM using ATF2 as substrate by [gamma-33P]-ATP assay relative to control
[21] = target: Mitogen-activated protein kinase 10 (Rattus norvegicus) (UniProt P49187); assay: Inhibition of JNK3 in rat primary neuron assessed as reduction in phosphorylation of APP at T668 residue at < 1 nM incubated for 30 mins by Western blot analysis; conditions: dose nM <1, time 30.0 min
[22] = target: T3, Mitogen-activated protein kinase 9; assay: Inhibition of human JNK2 at 1 uM using ATF2 as substrate by [gamma-33P]-ATP assay relative to control

T2 sequence (P53779 whole entry): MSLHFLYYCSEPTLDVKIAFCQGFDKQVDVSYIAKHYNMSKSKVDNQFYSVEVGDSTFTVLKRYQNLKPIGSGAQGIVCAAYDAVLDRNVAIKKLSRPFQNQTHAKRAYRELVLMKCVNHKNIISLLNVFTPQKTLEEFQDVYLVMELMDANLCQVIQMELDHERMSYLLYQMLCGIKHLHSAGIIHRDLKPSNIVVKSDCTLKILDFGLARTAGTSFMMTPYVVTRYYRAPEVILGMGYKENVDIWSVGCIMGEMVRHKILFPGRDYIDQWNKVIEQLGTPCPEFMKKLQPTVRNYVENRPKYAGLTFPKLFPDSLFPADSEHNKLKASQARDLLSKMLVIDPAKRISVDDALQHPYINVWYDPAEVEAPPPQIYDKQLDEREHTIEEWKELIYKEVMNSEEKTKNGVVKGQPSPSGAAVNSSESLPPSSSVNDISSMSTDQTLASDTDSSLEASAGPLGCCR
T7 sequence (Q08345 whole entry, the tested form may be a part): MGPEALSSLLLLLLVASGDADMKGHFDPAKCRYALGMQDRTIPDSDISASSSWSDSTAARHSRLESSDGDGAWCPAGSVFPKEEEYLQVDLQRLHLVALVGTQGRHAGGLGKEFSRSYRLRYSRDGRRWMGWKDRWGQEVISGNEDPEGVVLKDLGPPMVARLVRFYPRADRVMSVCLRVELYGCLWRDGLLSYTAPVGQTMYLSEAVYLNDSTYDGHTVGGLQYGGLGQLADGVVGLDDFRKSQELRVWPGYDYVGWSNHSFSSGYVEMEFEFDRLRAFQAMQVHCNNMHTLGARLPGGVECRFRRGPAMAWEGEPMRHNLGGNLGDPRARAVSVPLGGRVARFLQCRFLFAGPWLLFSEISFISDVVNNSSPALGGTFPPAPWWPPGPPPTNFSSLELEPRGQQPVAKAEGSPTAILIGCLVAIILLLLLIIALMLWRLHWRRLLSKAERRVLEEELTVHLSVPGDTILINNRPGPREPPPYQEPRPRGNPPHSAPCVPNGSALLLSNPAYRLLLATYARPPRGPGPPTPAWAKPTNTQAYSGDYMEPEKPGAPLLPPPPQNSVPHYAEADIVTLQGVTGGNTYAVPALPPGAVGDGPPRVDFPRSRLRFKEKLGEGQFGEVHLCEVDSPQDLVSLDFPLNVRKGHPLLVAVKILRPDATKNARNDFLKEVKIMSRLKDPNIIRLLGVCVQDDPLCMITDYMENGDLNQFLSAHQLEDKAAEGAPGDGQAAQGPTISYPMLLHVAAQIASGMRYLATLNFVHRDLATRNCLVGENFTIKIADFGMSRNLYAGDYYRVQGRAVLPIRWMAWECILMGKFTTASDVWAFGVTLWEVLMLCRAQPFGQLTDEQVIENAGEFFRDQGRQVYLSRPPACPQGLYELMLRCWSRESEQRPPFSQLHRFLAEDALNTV
T1 sequence (Q16539 whole entry): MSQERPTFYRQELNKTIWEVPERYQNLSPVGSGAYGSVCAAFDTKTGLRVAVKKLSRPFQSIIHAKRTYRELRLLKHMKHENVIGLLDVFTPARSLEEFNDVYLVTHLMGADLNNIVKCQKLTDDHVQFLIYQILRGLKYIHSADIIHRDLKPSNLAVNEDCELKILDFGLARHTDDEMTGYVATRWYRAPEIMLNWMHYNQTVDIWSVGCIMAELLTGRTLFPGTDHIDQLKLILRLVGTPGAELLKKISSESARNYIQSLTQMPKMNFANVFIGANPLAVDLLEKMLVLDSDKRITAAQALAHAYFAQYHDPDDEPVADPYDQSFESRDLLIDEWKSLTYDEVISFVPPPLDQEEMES
T5 sequence (P45983 whole entry): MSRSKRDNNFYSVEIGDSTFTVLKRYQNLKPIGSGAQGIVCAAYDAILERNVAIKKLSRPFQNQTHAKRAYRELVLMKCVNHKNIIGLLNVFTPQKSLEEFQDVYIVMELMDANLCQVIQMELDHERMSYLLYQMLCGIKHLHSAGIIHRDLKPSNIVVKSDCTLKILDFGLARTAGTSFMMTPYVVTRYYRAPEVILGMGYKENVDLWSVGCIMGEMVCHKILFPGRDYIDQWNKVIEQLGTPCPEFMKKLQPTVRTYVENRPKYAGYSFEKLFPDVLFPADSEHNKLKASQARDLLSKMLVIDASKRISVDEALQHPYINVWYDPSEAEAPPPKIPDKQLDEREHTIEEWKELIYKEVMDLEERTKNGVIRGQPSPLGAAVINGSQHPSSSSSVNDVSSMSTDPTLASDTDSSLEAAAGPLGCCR
Chain of Mitogen-activated protein kinase 10 (Rattus norvegicus) (P49187 whole entry): as the sequence (P53779 whole entry) above, with Q27H, Y32S, I33V, A34V counted along it
Chain of CYP2C9 (P11712 whole entry): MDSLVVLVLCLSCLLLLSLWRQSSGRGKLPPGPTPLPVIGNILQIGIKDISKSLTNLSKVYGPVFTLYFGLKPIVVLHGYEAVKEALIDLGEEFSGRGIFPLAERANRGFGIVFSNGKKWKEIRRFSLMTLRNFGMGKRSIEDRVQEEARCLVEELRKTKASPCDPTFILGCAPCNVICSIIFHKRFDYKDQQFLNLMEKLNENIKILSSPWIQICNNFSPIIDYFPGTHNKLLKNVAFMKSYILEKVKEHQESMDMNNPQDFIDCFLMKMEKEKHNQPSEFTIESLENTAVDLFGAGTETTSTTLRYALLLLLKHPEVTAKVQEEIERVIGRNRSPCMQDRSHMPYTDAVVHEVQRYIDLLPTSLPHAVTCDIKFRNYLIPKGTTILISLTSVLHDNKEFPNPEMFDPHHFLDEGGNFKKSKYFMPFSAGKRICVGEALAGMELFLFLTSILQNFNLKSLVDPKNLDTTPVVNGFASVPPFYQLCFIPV
Chain of Cytochrome P450 2C9 (P11712 whole entry): as above
Chain of Voltage-gated inwardly rectifying potassium channel KCNH2 (Q12809 whole entry): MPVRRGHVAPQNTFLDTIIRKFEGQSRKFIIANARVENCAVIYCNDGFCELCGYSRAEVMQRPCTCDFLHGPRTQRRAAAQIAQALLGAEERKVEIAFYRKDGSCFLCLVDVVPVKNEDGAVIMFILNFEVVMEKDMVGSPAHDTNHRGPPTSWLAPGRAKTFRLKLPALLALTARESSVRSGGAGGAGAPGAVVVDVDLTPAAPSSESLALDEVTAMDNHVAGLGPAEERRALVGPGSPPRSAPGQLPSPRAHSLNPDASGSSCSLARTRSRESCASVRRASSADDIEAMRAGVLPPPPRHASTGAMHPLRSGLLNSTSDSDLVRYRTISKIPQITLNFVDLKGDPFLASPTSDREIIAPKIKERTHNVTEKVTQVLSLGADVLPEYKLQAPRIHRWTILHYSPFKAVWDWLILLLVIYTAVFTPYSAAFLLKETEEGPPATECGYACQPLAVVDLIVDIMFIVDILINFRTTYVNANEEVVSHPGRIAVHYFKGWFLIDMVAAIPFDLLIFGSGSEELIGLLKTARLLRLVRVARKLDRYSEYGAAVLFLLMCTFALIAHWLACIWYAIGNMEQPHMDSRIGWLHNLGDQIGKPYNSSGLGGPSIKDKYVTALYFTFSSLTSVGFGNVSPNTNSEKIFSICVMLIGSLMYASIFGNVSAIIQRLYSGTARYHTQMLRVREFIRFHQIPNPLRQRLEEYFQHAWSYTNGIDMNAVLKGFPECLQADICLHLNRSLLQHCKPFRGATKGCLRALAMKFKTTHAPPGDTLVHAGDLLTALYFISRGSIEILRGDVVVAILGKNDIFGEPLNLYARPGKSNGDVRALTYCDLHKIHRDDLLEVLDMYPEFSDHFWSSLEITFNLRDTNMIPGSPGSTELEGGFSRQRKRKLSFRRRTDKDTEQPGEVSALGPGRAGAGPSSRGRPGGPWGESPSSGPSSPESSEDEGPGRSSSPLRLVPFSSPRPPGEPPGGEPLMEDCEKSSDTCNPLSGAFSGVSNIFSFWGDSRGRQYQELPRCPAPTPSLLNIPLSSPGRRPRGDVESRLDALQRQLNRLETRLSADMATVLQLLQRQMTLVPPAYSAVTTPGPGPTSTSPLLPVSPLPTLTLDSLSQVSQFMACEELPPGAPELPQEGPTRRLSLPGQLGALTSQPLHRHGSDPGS

- inhibition at 10 µM (CYP3A4): 57%
- Ratio IC50 [1]: 197
- IC50 [2]: 481 nM
- IC50 [3]: 24 nM
- IC50 [4]: 414 nM
- half-life [5]: 14 min
- half-life [6]: 15 min
- Ratio IC50 [7]: 17
- inhibition at 10 µM (CYP1A2): 30%
- IC50 [8]: 4730 nM
- inhibition at 10 µM (CYP2D6): 30%
- IC50 (Cytochrome P450 2C9): 4000 nM
- inhibition at 10 µM (CYP2C9): 66%
- Ratio IC50 [10]: 20
Structure (SMILES): CNC(=O)c1cc(-n2ncc3cc(Nc4ccccc4Cl)cnc32)cs1
- Cell viability (SH-SY5Y): 119%
- IC50 [9]: > 100000 nM

- inhibition [11]: 30%
- IC50 [12]: 100 nM
- inhibition [13]: 73%
- IC50 [14]: 247 nM
- IC50 [4]: 74 nM
- half-life [5]: 77 min
- half-life [6]: 92 min
- inhibition [15]: 55%
- inhibition [16]: 78%
- inhibition [17]: 75%
- concentration at 2 h [18]: 5.9 µM
- concentration at 2 h [19]: 3.3 µM
- inhibition [20]: 89%
- inhibition [21]: Active
- inhibition [22]: 81%
Structure (SMILES): Cc1nc2c(cnn2-c2csc(C(=O)NC3COC3)c2)cc1Nc1c(F)cccc1Cl
- Cell viability (SH-SY5Y): 116%
